Reference: paper PMC3398407 (The Journal of Neuroscience, 2012)
Where “and” joins values, the source holds several entries; their conditions need not be identical. Equal values may be shown once. Read-outs that look alike come from different tables or passages of the source.

Legend:
human M1 receptors [1] = target: T1, human M1 receptors (Homo sapiens, UniProt P11229); assay: ERK1/2 phosphorylation; type: cell-based; conditions: hM1 CHO cells, 5 min agonist; for EC50: read-out: ERK EC50
T1 sequence (P11229 1-460): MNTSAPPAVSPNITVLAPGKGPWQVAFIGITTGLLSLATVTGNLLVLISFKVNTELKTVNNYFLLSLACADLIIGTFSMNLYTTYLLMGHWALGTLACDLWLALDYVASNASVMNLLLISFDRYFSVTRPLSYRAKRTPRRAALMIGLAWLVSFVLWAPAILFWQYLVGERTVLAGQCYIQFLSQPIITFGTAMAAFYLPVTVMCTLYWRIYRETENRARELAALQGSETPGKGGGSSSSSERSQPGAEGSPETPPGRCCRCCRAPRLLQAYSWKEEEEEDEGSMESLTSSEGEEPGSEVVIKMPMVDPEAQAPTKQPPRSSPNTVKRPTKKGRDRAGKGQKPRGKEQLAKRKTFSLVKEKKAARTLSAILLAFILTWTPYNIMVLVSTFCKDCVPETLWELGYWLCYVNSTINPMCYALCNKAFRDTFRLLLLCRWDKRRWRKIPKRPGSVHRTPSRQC

hM1 receptors = target: T2, hM1 receptors (Homo sapiens, UniProt P11229); assay: β-arrestin recruitment, PathHunter Express hM1 CHO cells; type: cell-based
T2 sequence (P11229 1-460): T1 sequence (P11229 1-460)

human M1 mAChR [2] = target: T3, human M1 mAChR (Homo sapiens, UniProt P11229); assay: ERK1/2 phosphorylation in TET-inducible hM1 TREx CHO cells; type: cell-based
T3 sequence (P11229 1-460): T1 sequence (P11229 1-460)

human M1 mAChR [3] = target: T3, human M1 mAChR; assay: Confocal imaging of β-arrestin2-YFP recruitment in hM1 TREx CHO cells; type: cell-based; conditions: agonist 100 μM
M1 muscarinic receptors = target: T4, M1 muscarinic receptors (Homo sapiens, UniProt P11229); assay: GPCRProfiler calcium assay, agonist mode, M1; type: cell-based; conditions: 10 μM compound
T4 sequence (P11229 1-460): T1 sequence (P11229 1-460)

[4] = system: 168 G protein coupled receptors (GPCRs); assay: GPCRProfiler calcium assay, agonist mode, other GPCRs; type: cell-based; conditions: 10 μM compound
D4 dopamine receptors = target: T5, D4 dopamine receptors (Homo sapiens, UniProt P21917); assay: GPCRProfiler calcium assay, D4; type: cell-based; conditions: 10 μM compound
T5 sequence (P21917 1-419): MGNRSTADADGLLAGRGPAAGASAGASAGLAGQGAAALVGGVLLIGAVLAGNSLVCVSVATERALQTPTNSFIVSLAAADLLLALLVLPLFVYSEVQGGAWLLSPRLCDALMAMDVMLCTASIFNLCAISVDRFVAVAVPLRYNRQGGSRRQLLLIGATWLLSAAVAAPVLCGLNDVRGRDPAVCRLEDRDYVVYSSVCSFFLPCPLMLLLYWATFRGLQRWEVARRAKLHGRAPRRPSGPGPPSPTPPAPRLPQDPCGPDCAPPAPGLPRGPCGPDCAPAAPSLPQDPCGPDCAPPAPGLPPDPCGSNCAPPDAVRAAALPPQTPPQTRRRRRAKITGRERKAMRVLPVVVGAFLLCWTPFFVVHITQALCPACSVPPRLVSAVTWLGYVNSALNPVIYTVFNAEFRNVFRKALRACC

β3-adrenergic receptors = β3-adrenergic receptors (Homo sapiens, UniProt P13945); assay: GPCRProfiler calcium assay, β3; type: cell-based; conditions: 10 μM compound
[5] = system: Schaffer collateral-CA1 synapse in rat hippocampus; conditions: 500 nM bath applied 10 minutes prior to threshold TBS; rat hippocampal slices
[6] = system: Schaffer collateral-CA1 synapse; assay: Muscarinic long-term depression; conditions: 10 minutes, rat hippocampal slices
[7] = system: striatal medium spiny neurons (MSNs); design: species or system rats
[8] = system: mPFC layer V pyramidal neurons; assay: Whole-cell voltage clamp recordings of sEPSCs in mPFC layer V pyramidal neurons; design: species or system mice; conditions: mouse mPFC slices; for effect on sEPSC frequency / interevent interval (IEI): 100 μM
Sprague-Dawley rats [9] = assay: Morris water maze; type: in vivo, rat
Sprague-Dawley rats [10] = assay: Acquisition of contextual fear conditioning; type: in vivo, rat; conditions: vs vehicle
rats = assay: Amphetamine-induced hyperlocomotion; type: in vivo, rat; conditions: 3–56.6 mg/kg i.p. 30 minutes prior to amphetamine
human M1 receptors [11] = target: T1, human M1 receptors; assay: Calcium mobilization in hM1 CHO cells; conditions: for Ca release % CCh max: Emax normalized to maximum CCh response; for EC50: read-out: Ca release EC50
human M1 mAChR [12] = target: T3, human M1 mAChR; assay: Calcium mobilization in TET-inducible hM1 TREx CHO cells
D3 receptors = conditions: ref Lebois et al., 2011; cited from earlier work
[13] = read-out: ERK EC50, TET 50 ng/mL
[14] = read-out: ERK EC50, TET 1 μg/mL
[15] = i.p., treated groups vs controls
[16] = read-out: Ca EC50, TET 10 ng/mL
[17] = read-out: Ca EC50, TET 25 ng/mL
[18] = read-out: Ca EC50, TET 50 ng/mL

β3-adrenergic receptors, sequence (P13945 whole entry): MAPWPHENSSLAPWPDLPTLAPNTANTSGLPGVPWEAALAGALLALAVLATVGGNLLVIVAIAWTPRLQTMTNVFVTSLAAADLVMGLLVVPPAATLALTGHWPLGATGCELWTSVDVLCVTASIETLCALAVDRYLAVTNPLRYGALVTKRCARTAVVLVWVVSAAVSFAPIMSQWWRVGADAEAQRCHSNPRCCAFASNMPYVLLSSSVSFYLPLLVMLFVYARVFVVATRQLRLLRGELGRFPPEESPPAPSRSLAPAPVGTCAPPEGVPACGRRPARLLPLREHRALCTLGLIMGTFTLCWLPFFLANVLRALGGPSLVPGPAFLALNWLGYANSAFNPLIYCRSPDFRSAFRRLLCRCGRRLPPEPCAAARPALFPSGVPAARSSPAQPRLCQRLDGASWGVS

Row | Compound | ERK % CCh max (human M1 receptors [1]) | EC50 (human M1 receptors [1]) | effect on β-arrestin recruitment (hM1 receptors) | ERK % CCh max (human M1 mAChR [2]; TET 0 ng/mL) | ERK % CCh max (human M1 mAChR [2]; TET 25 ng/mL) | ERK % CCh max (human M1 mAChR [2]; TET 50 ng/mL) | ERK % CCh max (human M1 mAChR [2]; TET 1 μg/mL) | EC50 (human M1 mAChR [2]; [13]) | EC50 (human M1 mAChR [2]; [14]) | β-arrestin2-YFP recruitment (confocal) (human M1 mAChR [3]; TET 50 ng/mL overnight) | β-arrestin2-YFP recruitment (confocal) (human M1 mAChR [3]; TET 1 μg/mL overnight) | potentiation of threshold TBS LTP (fEPSP slope) [5] | induction of LTD of fEPSP slope ([6]; 30 μM) | excitatory effect in MSNs (number of spikes per depolarization pulse) ([7]; 30 μM) | effect on sEPSC frequency / interevent interval (IEI) [8] | reversal of amphetamine-induced hyperlocomotion (rats) | Ca release % CCh max (human M1 receptors [11]) | EC50 (human M1 receptors [11]) | Ca % CCh max (human M1 mAChR [12]; TET 0 ng/mL) | Ca % CCh max (human M1 mAChR [12]; TET 10 ng/mL) | also measured
1 | CCOC(=O)N1CCC(NCCNC(=O)c2ccccc2C)CC1.Cl [VU0357017] | 37.9 % CCh max | 37 µM | little or no effect on β-arrestin recruitment | 27.4 % CCh max | 50.3 % CCh max | 45.9 % CCh max | 30.3 % CCh max | 35.9 µM | 3.17 µM | no effect on β-arrestin recruitment | did not induce β-arrestin2 recruitment | significant potentiation of fEPSP slope | did not induce a significant LTD response | very weak efficacy in inducing excitatory effects | no significant effect on IEI | fails to reverse hyperlocomotion | 41.7 ± 2.37 % CCh max and 41.7 % CCh max | 1.6 µM | 8.24 % CCh max | 7.21 % CCh max | agonist Ca response at M1 (M1 muscarinic receptors): induced a significant response; agonist activity at other receptor subtypes [4]: little activity; agonist Ca response at D4 (D4 dopamine receptors): very small responses; agonist Ca response at β3 (β3-adrenergic receptors): very small responses; overnight memory retention (Sprague-Dawley rats [9]; [15]): did not differ from controls; platform crossing on the probe trial (Sprague-Dawley rats [9]; [15]): did not differ from controls; swim path distance from days 4 to 5 (Sprague-Dawley rats [9]; [15]): did not differ from controls; acquisition of contextual fear (duration of freezing) (Sprague-Dawley rats [10]; 0.1, 0.3, 0.56, 1, and 3 mg/kg i.p. 30 min before conditioning): robust improvements in acquisition of contextual fear; Ca % CCh max (human M1 mAChR [12]; TET 25 ng/mL): 24.5 % CCh max; Ca % CCh max (human M1 mAChR [12]; TET 50 ng/mL): 60.4 % CCh max; Ca % CCh max (human M1 mAChR [12]; TET 1 μg/mL): 75.3 % CCh max; EC50 (human M1 mAChR [12]; [16]): 16 µM; EC50 (human M1 mAChR [12]; [17]): 16 µM; EC50 (human M1 mAChR [12]; [18]): 1.6 µM; EC50 (human M1 mAChR [12]; read-out: Ca EC50, TET 1 μg/mL): 0.69 µM
2 | C[N+](C)(C)CCOC(N)=O [CCh, carbachol, reference compound] |  |  |  |  |  |  |  |  |  |  |  |  | without effect |  | robust increase in sEPSC frequency |  |  |  |  |  | induction of LTD of fEPSP slope ([6]; 50 μM): induced robust LTD; excitatory effect in MSNs (number of spikes per depolarization pulse) ([7]; 10 μM): robust excitatory effect; concentration required for induction of the PFC response [8]: > 50 µM
3 | CCOC(=O)N1CCC(N2CCC[C@@H](NC(=O)c3ccccc3C)C2)CC1 [VU0364572] | 90.5 % CCh max | 10 µM | little or no effect on β-arrestin recruitment | 56.4 % CCh max | 50.6 % CCh max | 52.6 % CCh max | 49.3 % CCh max | 9.44 µM | 3.3 µM | no effect on β-arrestin recruitment | did induce responses | significant potentiation of fEPSP slope | induced robust LTD | relatively weak excitatory effect | no significant effect on IEI | fails to reverse this response | 70.8 % CCh max | 0.89 µM | 44.2 % CCh max | 39.9 % CCh max | EC50 (human M1 mAChR [2]; read-out: ERK EC50, TET 0 ng/mL): 108 µM; EC50 (human M1 mAChR [2]; read-out: ERK EC50, TET 25 ng/mL): 9.88 µM; swim distance, day 5 (Sprague-Dawley rats [9]; 0.1 mg/kg and 10 mg/kg i.p. 30 min prior to first trial, vs vehicle): decreased swim distance; overnight memory retention day 4 to day 5 (Sprague-Dawley rats [9]; 0.1 mg/kg i.p., vs vehicle): enhanced overnight memory retention; platform crossings during first 30 seconds of probe trial (Sprague-Dawley rats [9]; 0.1 mg/kg i.p., vs vehicle): increased platform crossings; swim distance, day 4 (Sprague-Dawley rats [9]; 0.1 mg/kg i.p., vs vehicle): enhancement; acquisition of contextual fear (freezing) (Sprague-Dawley rats [10]; 0.056, 0.3, and 0.56 mg/kg i.p. 30 min before conditioning): improved acquisition of contextual fear learning; concentration required to induce effects at D3 receptors (D3 receptors): greater than 10 μM; inhibition of binding at D3 receptors (D3 receptors): 10%; Ca % CCh max (human M1 mAChR [12]; TET 25 ng/mL): 68.1 % CCh max; Ca % CCh max (human M1 mAChR [12]; TET 50 ng/mL): 78.1 % CCh max; Ca % CCh max (human M1 mAChR [12]; TET 1 μg/mL): 86.2 % CCh max; EC50 (human M1 mAChR [12]; read-out: Ca EC50, TET 0 ng/mL): 30.5 µM; EC50 (human M1 mAChR [12]; [16]): 146 µM; EC50 (human M1 mAChR [12]; [17]): 2.3 µM; EC50 (human M1 mAChR [12]; [18]): 1 µM; EC50 (human M1 mAChR [12]; read-out: Ca EC50, TET 1 μg/mL): 0.5 µM
